“Also recorded” adds a separate entry of the source. Read-outs that look alike come from different tables or passages of the source.
What was measured:
AKT S473 phosphorylation = test: Immunoblot of PC3 cells, 4 or 24 hours; type: cell-based
[1] = system: AKT S473 phosphorylation (mTORC2); test: AlphaLISA/MSD pAKT S473 in MDA-MB-468 cells; type: cell-based
[2] = system: S6K T389 phosphorylation (mTORC1); test: AlphaLISA pS6K T389 in MDA-MB-468 cells; type: cell-based
[3] = MCF-7 subcutaneous xenograft: body weight; settings: MCF-7 xenograft mice; bi-steric inhibitors ip once weekly, MLN0128 po daily
pAKT S473 [4] = test: Immunoblot of MCF-7 cells overexpressing Myr-AKT or vector control; type: cell-based; settings: 4 hours; for effect on pAKT S473 in Myr-AKT cells: MCF-7 Myr-AKT cells, BiS-31x up to 100 nM; for effect on pAKT S473 in parental cells: MCF-7 parental cells
kinases other than mTOR = test: KiNativ kinome screen in Ramos cells: kinases other than mTOR; settings: 1 µM
[5] = system: 4EBP1 T37/T46 phosphorylation (mTORC1); test: AlphaLISA/MSD p4EBP1 T37/T46 in MDA-MB-468 cells; type: cell-based
[6] = system: mTOR FRB mutation (F2108L); test: Immunoblot of parental MCF-7 and MCF-7 cells harboring mTOR F2108L; type: cell-based; settings: MCF-7, four hours
MCF-7 cells = test: Cell viability; type: cell-based; settings: MCF-7, 72 hours
mTORC1 over mTORC2 = test: mTORC1/2 selectivity: potencies for inhibition of 4EBP1 T37/T46; type: cell-based; settings: MDA-MB-468; p4EBP1 T37/T46 vs pAKT S473 potencies
p4EBP1 T37/T46 = test: FK506 competition, p4EBP1 T37/T46 in MDA-MB-468 cells; type: cell-based
PIK3CD = PIK3CD (Homo sapiens, UniProt O00329); test: KiNativ kinome screen in Ramos cells: PIK3CD; settings: read-out: inhibition of PIK3CD
Sequence of PIK3CD (O00329 whole entry): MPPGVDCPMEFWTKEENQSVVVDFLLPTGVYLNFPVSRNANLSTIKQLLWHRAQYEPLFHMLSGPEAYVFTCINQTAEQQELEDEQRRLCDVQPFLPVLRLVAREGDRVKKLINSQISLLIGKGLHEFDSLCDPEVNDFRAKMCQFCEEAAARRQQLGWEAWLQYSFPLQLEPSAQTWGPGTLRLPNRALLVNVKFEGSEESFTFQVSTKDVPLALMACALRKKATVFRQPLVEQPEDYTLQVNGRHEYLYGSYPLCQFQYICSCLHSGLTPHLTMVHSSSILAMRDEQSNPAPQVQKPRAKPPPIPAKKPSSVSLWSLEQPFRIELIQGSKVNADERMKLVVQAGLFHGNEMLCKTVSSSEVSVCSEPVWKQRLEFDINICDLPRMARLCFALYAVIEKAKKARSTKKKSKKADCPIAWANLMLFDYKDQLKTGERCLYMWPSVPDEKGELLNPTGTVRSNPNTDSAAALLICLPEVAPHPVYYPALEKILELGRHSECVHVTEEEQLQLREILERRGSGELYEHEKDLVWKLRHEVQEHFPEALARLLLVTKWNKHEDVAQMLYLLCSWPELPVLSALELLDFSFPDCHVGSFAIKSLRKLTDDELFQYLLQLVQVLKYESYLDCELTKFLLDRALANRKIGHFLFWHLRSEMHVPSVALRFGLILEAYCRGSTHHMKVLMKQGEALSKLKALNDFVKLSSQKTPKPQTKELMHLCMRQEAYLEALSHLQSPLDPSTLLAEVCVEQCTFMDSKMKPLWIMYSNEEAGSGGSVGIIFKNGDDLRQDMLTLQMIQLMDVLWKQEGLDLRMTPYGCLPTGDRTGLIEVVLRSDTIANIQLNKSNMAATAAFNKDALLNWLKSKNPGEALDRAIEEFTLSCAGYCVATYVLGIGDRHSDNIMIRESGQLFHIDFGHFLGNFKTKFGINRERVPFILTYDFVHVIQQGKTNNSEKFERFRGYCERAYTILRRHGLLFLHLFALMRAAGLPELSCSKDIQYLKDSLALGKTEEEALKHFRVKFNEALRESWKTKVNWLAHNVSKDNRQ
Sequence of PIK3CD (P27986 whole entry partner): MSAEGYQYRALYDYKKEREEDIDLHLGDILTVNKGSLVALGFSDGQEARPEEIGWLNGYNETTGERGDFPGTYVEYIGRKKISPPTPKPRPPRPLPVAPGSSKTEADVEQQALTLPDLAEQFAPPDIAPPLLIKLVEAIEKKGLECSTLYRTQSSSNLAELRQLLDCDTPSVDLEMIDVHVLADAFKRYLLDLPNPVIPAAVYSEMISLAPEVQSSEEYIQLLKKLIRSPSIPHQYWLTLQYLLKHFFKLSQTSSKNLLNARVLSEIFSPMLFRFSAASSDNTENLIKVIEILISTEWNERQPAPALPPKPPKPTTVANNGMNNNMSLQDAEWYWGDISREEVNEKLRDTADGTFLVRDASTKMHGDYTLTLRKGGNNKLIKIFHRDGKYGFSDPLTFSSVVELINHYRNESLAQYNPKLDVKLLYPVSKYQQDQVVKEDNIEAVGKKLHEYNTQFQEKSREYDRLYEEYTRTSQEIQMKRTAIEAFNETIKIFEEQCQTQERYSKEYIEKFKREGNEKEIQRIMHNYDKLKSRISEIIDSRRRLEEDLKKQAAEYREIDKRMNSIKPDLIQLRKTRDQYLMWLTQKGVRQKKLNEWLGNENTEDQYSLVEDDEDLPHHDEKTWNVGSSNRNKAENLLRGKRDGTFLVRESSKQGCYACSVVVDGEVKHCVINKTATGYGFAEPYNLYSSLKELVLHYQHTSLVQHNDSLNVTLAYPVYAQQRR

[7] = system: mTORC1 signaling (p4EBP1 T37/T46); test: p4EBP1 T37/T46 in parental and FKBP12 knockout NCI-H358 cells; type: cell-based
[8] = Two-day glucose tolerance test; type: in vivo; settings: mice, one hour after inhibitor administration
[9] = system: 4EBP1/2 WT and 4EBP1/2 DKO MEFs; test: Cell growth of E1A/Ras-transformed 4EBP1/2 WT and DKO MEFs; type: cell-based, mouse; settings: 72 hours
[10] = mouse, in vivo
FKBP12 = FKBP12 (Homo sapiens, UniProt P62942); test: TR-FRET competitive binding assay for FKBP12
Sequence of FKBP12 (P62942 whole entry): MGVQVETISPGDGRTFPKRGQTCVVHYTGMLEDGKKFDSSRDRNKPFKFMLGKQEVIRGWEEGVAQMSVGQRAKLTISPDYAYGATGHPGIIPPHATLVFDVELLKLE

global protein synthesis = test: Puromycin incorporation in MCF-7 cells; type: cell-based; settings: MCF-7, 4 hours
eIF4F complex formation = test: In vitro cap-binding affinity assay, MDA-MB-468 sgGFP and sg4EBP1 cells; type: cell-based; settings: 3 nM, 4 and 24 hours, MDA-MB-468 sgGFP cells
[11] = system: pS6K T389, pAKT S473, cyclin D1; test: Immunoblot of MDA-MB-468 and MCF-7 sgGFP and sg4EBP1 cells; type: cell-based; settings: 4 hours
mTORC1 = settings: cited from earlier work
pAKT S473 [12] = test: Immunoblot of MCF-7 and BT474 cells: pAKT S473; type: cell-based; settings: 10 nM, by 4 hours
[13] = system: HER3 expression and phosphorylation; test: Immunoblot of MCF-7 and BT474 cells: HER3; type: cell-based; settings: 10 nM, by 24 hours
[14] = system: MDA-MB-468 sgGFP and sg4EBP1 cells; test: Cell viability of MDA-MB-468 sgGFP and sg4EBP1 cells; type: cell-based; settings: for concentration suppressing proliferation: five days

In the case of `CO[C@H]1C[C@@H]2CC[C@@H](C)[C@@](O)(O2)C(=O)C(=O)N2CCCC[C@H]2C(=O)O[C@H]([C@H](C)C[C@@H]2CC[C@@H](O)[C@H](OC)C2)CC(=O)[C@H](C)/C=C(\C)[C@@H](O)[C@@H](OC)C(=O)[C@H](C)C[C@H](C)/C=C/C=C/C=C/1C` [Rapamycin], the “effect on AKT S473 phosphorylation” value (AKT S473 phosphorylation) is reported as “significant inhibition”, the “effect on pAKT S473” value [1] is reported as “increased” and the “effect on pS6K T389” value [2] is reported as “inhibited”.
In the case of `CO[C@H]1C[C@@H]2CC[C@@H](C)[C@@](O)(O2)C(=O)C(=O)N2CCCC[C@H]2C(=O)O[C@H]([C@H](C)C[C@@H]2CC[C@@H](O)[C@H](OC)C2)C[C@@H](OC)[C@H](C)/C=C(\C)[C@@H](O)[C@@H](OC)/C(=N/OCc2cn(CCOCCOCCOCCOCCOCCOCCOCCOCCC(=O)NCCCCn3nc(-c4ccc5oc(N)nc5c4)c4c(N)ncnc43)nn2)[C@H](C)C[C@H](C)/C=C/C=C/C=C/1C` [RMC-4529], the “maximum loss in body weight” value [3] is reported as 5%, the “effect on pAKT S473 in Myr-AKT cells” value (pAKT S473 [4]) is reported as “did not inhibit” and the “effect on pAKT S473 in parental cells” value (pAKT S473 [4]) is reported as “increase”. The “interactions with kinases other than mTOR” value (kinases other than mTOR) was “No interactions”, the IC50 ([5]; read-out: 4EBP1 T37/T46 IC50) was 6.37 nM and the IC50 ([2]; read-out: S6K IC50) was 0.98 nM. For the same compound, the “reduction in potency in cells with mTOR FRB mutation (F2108L)” value [6] was 10 fold, the “GI50 relative to BiS-NS and BiS-13x (less potent)” value (MCF-7 cells) was 10 fold and the “selectivity for mTORC1 over mTORC2” value (mTORC1 over mTORC2) was 31 fold.
For `CC(C)n1nc(-c2ccc3oc(N)nc3c2)c2c(N)ncnc21` [MLN0128], the “impact of addition of FK506 on inhibitory activity” value (p4EBP1 T37/T46) was “Neither FKBP12 knockout nor addition of FK506 had an impact”, the “maximum loss in body weight” value [3] was “up to 15%” and the inhibition at 1 µM (PIK3CD) was 69%. For the same compound, the “impact of FKBP12 knockout on inhibitory activity” value [7] was “Neither FKBP12 knockout nor addition of FK506 had an impact”, the “effect on pAKT S473” value [1] was “inhibited” and the “effect on p4EBP1 T37/T46” value [5] was “inhibited”. The “return of glucose levels to baseline after the first glucose challenge” value [8] was “delayed”, the “GI50 relative to BiS-NS and BiS-13x (less potent)” value (MCF-7 cells) was 10 fold and the “sensitivity to cell growth inhibition in 4EBP1/2 DKO MEFs compared to WT MEFs” value [9] was “a similar pattern was observed”.
For RMC-4627, the “effect on p4EBP1 T37/T46” value [5] was “equipotent”, the “effect on pS6K T389” value [2] was “equipotent” and the “maximum loss in body weight” value [10] was 10%. The “affinity for FKBP12 relative to rapamycin (lower)” value (FKBP12) was “approximately 3 fold” and the “selectivity for mTORC1 over mTORC2” value (mTORC1 over mTORC2) was 13 fold.
In the case of `CC(C)n1nc(-c2cc3cc(O)ccc3[nH]2)c2c(N)ncnc21` [PP242], the “effect on pAKT S473” value [1] is reported as “inhibited” and the “effect on p4EBP1 T37/T46” value [5] is reported as “inhibited”.
In the case of `CO[C@@H]1C[C@@H]2CC[C@@H](C)[C@@](O)(O2)C(=O)C(=O)N2CCCC[C@@H]2C(=O)O[C@H]([C@H](C)C[C@H]2CC[C@H](OCCOCc3cn(CCOCCOCCOCCOCCOCCOCCOCCOCCC(=O)NCCCCn4nc(-c5ccc6oc(N)nc6c5)c5c(N)ncnc54)nn3)[C@H](OC)C2)CC(=O)[C@H](C)/C=C(\C)[C@H](O)[C@@H](OC)C(=O)[C@H](C)C[C@H](C)/C=C/C=C/C=C/1C` [RapaLink-1], the “effect on global protein synthesis” value (global protein synthesis) is reported as “suppressed”, the “displacement of eIF4G by 4EBP1 in the cap-binding complexes” value (eIF4F complex formation) is reported as “significant displacement” and the “effect on pS6K T389 and pAKT S473” value ([11]; control (sgGFP) and sg4EBP1 cells) is reported as “suppressed pS6K T389 and pAKT S473 effectively and equivalently”. The “effect on cyclin D1 levels” value ([11]; sg4EBP1 cells) was “unaffected”, the “effect on cyclin D1 levels” value ([11]; sgGFP cells) was “reduced” and the “selectivity for mTORC1” value (mTORC1) was “three- to four”. The “effect on pAKT S473 in Myr-AKT cells” value (pAKT S473 [4]) was “inhibited”, the “effect on pAKT S473 in parental cells” value (pAKT S473 [4]) was “inhibited” and the “effect on pAKT S473” value (pAKT S473 [12]) was “abolished”. For the same compound, the “effect on p4EBP1 T37/T46” value [5] was “equipotent”, the “effect on pS6K T389” value [2] was “equipotent” and the “effect on HER3 expression and phosphorylation” value [13] was “increased”. The “sensitivity of sg4EBP1 cells compared to sgGFP cells (less sensitive)” value ([14]; MDA-MB-468, five days) was “three”, the concentration suppressing proliferation ([14]; MDA-MB-468 sg4EBP1 cells) was 0.3 nM and the concentration suppressing proliferation ([14]; MDA-MB-468 sgGFP cells) was 0.1 nM. For the same compound, the “selectivity for mTORC1 over mTORC2” value (mTORC1 over mTORC2) was “three- to four; also recorded: approximately four”.

Source: paper PMC9249104 (Nature chemical biology, 2021)
